The values that follow come from PubChem BioAssay (NCI).

Some test systems named below: 786-0 renal; LOX IMVI melanoma; MCF7 breast; HCT-116 colon; SW-620 colon; HOP-92 NSCLC; SK-OV-3 ovarian; NCI-H226 lung; BT-549 breast; COLO 205 colon; CCRF-CEM leukemia.
What all share (experiment): DTP human tumour cell line panel, 48 h

Structures are written as SMILES.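 How tested: cells in 96-well plates exposed to compound for 48 hours at five concentrations. The concentration for 50% growth inhibition is given as GI50. Definition used: TGI = concentration required for complete inhibition of growth.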

A word on the TGI: it is the concentration at which net growth stops. A high value points to lower sensitivity of the cells. In the case of `CCOC(=O)C(NC(=O)c1ccccc1)(Nc1ccc(Cl)cc1C(F)(F)F)C(F)(F)F` (stereo not drawn), the TGI is over 100 µM with 786-0 renal; over 100 µM in the test with LOX IMVI melanoma; over 100 µM in the test with MCF7 breast; over 84.5 µM in the test with HCT-116 colon; 17.2 µM in the test with SW-620 colon; 50.7 µM with HOP-92 NSCLC. The TGI is over 100 µM with SK-OV-3 ovarian, over 100 µM in the test on NCI-H226 lung, 32.4 µM in the test with BT-549 breast and 19.2 µM in the test with COLO 205 colon.
For the compound `COc1cc2c(cc1OC)C(=O)/C(=C/c1cc(OC)c(OC)c(OC)c1)C2`, the TGI in the test with CCRF-CEM leukemia, in the test with MCF7 breast, in the test on HOP-92 NSCLC, with SK-OV-3 ovarian, with NCI-H226 lung and with BT-549 breast was over 100 µM each time. Also, the TGI in the test on COLO 205 colon was over 100 µM.
For `C1CC[C@H]2SSC3CCCC[C@H]3SSC2C1` (stereo partly drawn), the TGI in the test on CCRF-CEM leukemia, with 786-0 renal, in the test with LOX IMVI melanoma, with MCF7 breast, with HCT-116 colon and with SW-620 colon was over 100 µM in each case. Further, the total growth inhibition concentration (TGI) in the test with HOP-92 NSCLC, with SK-OV-3 ovarian, with BT-549 breast and in the test with COLO 205 colon was over 100 µM in each case.
As for `O=C(CNC(c1ccccc1)(c1ccccc1)c1ccccc1)NC1CCCCC1NC(=O)CNC(c1ccccc1)(c1ccccc1)c1ccccc1` (stereo not drawn), the TGI with CCRF-CEM leukemia, with 786-0 renal, with LOX IMVI melanoma, in the test on MCF7 breast, with HCT-116 colon and in the test on SW-620 colon was over 100 µM in each case. The total growth inhibition concentration (TGI) is 78.7 µM in the test with HOP-92 NSCLC, over 100 µM with SK-OV-3 ovarian, over 100 µM in the test on BT-549 breast and over 100 µM in the test on COLO 205 colon.
Turning to `C=CCOC(=O)C1=C(CCC[C@@H](C)O[Si](C)(C)C(C)(C)C)N=C(N)N2[C@H](CCO)CC[C@@H]12`, the concentration for total growth inhibition (TGI) with 786-0 renal came out at 33.8 µM; with MCF7 breast, 25.7 µM; with HCT-116 colon, 28.6 µM; in the test with HOP-92 NSCLC, 27.2 µM; in the test with SK-OV-3 ovarian it was 27.2 µM; with NCI-H226 lung, 33.9 µM. Also, the total growth inhibition concentration (TGI) was determined as 36.5 µM with BT-549 breast and 22.9 µM with COLO 205 colon.
Consider `CC1C(OC2O[C@@H]3O[C@@]4(C)CC[C@H]5[C@H](C)CC[C@@H](C2C)[C@@]35O4)O[C@@H]2O[C@@]3(C)CC[C@H]4[C@H](C)CC[C@@H]1[C@@]24O3` (stereo partly drawn), for which the TGI in the test with CCRF-CEM leukemia, with 786-0 renal, with LOX IMVI melanoma, in the test on MCF7 breast, in the test with HCT-116 colon and in the test on SW-620 colon was over 50 µM in each case. Further, the total growth inhibition concentration (TGI) with SK-OV-3 ovarian, in the test with NCI-H226 lung, in the test on BT-549 breast and in the test on COLO 205 colon was over 50 µM each time.
On to `Brc1ccc2c(c1)-c1nc3nc4c(cc3cc1CC2)CCc1ccc(Br)cc1-4`, for which the TGI in the test with 786-0 renal, with LOX IMVI melanoma, with MCF7 breast, with HCT-116 colon, with SW-620 colon and in the test with HOP-92 NSCLC was over 100 µM throughout. Also, the TGI in the test on SK-OV-3 ovarian, with NCI-H226 lung, in the test on BT-549 breast and in the test on COLO 205 colon was over 100 µM in each case.
Consider `COc1ccc2cc(-c3nc(N)nc(N4N=C(C)CC4(C)C)n3)c(=N)oc2c1`, for which the TGI with CCRF-CEM leukemia came to 41.4 µM; with 786-0 renal it was 36.3 µM; with MCF7 breast, 44.2 µM; with HCT-116 colon, 35 µM; with HOP-92 NSCLC, 60.5 µM; in the test with SK-OV-3 ovarian, 53.9 µM. Further, the TGI worked out at 40.6 µM in the test with NCI-H226 lung, 48.1 µM in the test with BT-549 breast and 30.8 µM in the test on COLO 205 colon.
Turning to `COC(=O)C1=C(C(=O)OC)SC2(S1)C(C(=O)OC)=C(C(=O)OC)Sc1c2ssc1=Nc1ccc(Cl)cc1`, the TGI is 1.69 µM in the test on 786-0 renal; 1.16 µM in the test with LOX IMVI melanoma; 2.42 µM with MCF7 breast; 1.15 µM in the test on HCT-116 colon; 1.93 µM in the test on HOP-92 NSCLC; 4.29 µM in the test with SK-OV-3 ovarian. For the same compound, the values for the concentration for total growth inhibition (TGI) in the test on NCI-H226 lung, with BT-549 breast and with COLO 205 colon were 3.38 µM, 5.11 µM and 2.04 µM, respectively.
For the compound `CC(=O)C1=C(C)N(c2ccc(C)cc2)C2(O)C3=C(C(=O)c4ccccc4C3=O)C(O)=CC12Cl` (stereo not drawn), the concentration for total growth inhibition (TGI) in the test with 786-0 renal, in the test with LOX IMVI melanoma, in the test with MCF7 breast, in the test with HCT-116 colon, in the test with SW-620 colon and in the test with HOP-92 NSCLC was over 100 µM in each case. Moreover, the concentration for total growth inhibition (TGI) with SK-OV-3 ovarian was over 100 µM; in the test on NCI-H226 lung it was over 100 µM; in the test with BT-549 breast, 45.9 µM; in the test with COLO 205 colon, 63.9 µM.
For orientation: GI50 means the concentration that inhibits growth by half. Take `CN1CCN(Cc2ccc(NC(=O)c3cccc(C#Cc4cnc(N)c5ncccc45)c3F)cc2C(F)(F)F)CC1`: the GI50 with CCRF-CEM leukemia is 1.01 µM; in the test with MCF7 breast, 0.793 µM; in the test with SW-620 colon, 0.62 µM; in the test on HOP-92 NSCLC it was 1.27 µM; in the test with SK-OV-3 ovarian, 1.39 µM; in the test on NCI-H226 lung it was 0.647 µM. The GI50 in the test on BT-549 breast is 3.1 µM; in the test with COLO 205 colon it was 1.17 µM. In addition, the TGI worked out at 3.67 µM in the test on CCRF-CEM leukemia; 1.72 µM with MCF7 breast; 1.71 µM in the test on SW-620 colon; 4.63 µM in the test on HOP-92 NSCLC; 7.46 µM in the test on SK-OV-3 ovarian; 1.97 µM with NCI-H226 lung. For the same compound, the TGI with BT-549 breast was 11 µM; in the test with COLO 205 colon, 6.07 µM.
Take `O=C(O)CC(Sc1ccccc1)c1ccccc1` (stereo not drawn): the TGI in the test with 786-0 renal, in the test on LOX IMVI melanoma, in the test on MCF7 breast, with HCT-116 colon, in the test with SW-620 colon and with HOP-92 NSCLC was over 100 µM in each case. For the same compound, the TGI in the test with SK-OV-3 ovarian, with NCI-H226 lung, in the test with BT-549 breast and in the test with COLO 205 colon was over 100 µM each time.
In the case of `CN1CN(c2ccccc2)C2(CCN(CCC3COc4ccccc4O3)CC2)C1=O` (stereo not drawn), the concentration for total growth inhibition (TGI) in the test with CCRF-CEM leukemia was 77.4 µM; with 786-0 renal it was over 100 µM; in the test on LOX IMVI melanoma, 50.4 µM; in the test on MCF7 breast it was 72.4 µM; in the test on HCT-116 colon, 23.2 µM; in the test on SW-620 colon, over 100 µM. Moreover, the TGI in the test with SK-OV-3 ovarian is 71.1 µM; in the test on NCI-H226 lung, 85.1 µM; in the test on BT-549 breast, 42.5 µM; in the test on COLO 205 colon it was 34.2 µM.
Regarding `CC(=O)Nc1nnc(S(C)(=O)=O)s1`, the total growth inhibition concentration (TGI) with CCRF-CEM leukemia, in the test with 786-0 renal, with MCF7 breast, with HCT-116 colon, with SW-620 colon and in the test with HOP-92 NSCLC was over 100 µM throughout. Besides, the TGI in the test with NCI-H226 lung, with BT-549 breast and with COLO 205 colon was over 100 µM each time.
As for `CSc1ccc(/C=C2\N=C(c3ccccc3)N(c3nc4cc(C)c(C)cc4s3)C2=O)cc1`, the TGI with CCRF-CEM leukemia is 34.6 µM; in the test with 786-0 renal, 61.6 µM; in the test with LOX IMVI melanoma it was 44.7 µM; in the test on MCF7 breast, 37.2 µM; with HCT-116 colon, 44.5 µM; with SW-620 colon, over 100 µM. Besides, the TGI in the test with HOP-92 NSCLC was 73.3 µM; with SK-OV-3 ovarian, over 100 µM; in the test on BT-549 breast it was 98.1 µM; in the test with COLO 205 colon, over 100 µM.
As for `COc1ccc2[nH]c3c(C)c4ccnc(NCCCN(C)CCCNc5ccc6ncn7c8ccccc8c(=O)c5c67)c4c(C)c3c2c1`, the total growth inhibition concentration (TGI) in the test with CCRF-CEM leukemia came to 5.62 µM; with LOX IMVI melanoma, 0.606 µM; in the test on MCF7 breast, 2.61 µM; in the test on HCT-116 colon it was 3.01 µM; in the test on SW-620 colon, 25 µM; in the test on HOP-92 NSCLC, 19.2 µM. Moreover, the TGI in the test on SK-OV-3 ovarian came out at 6.8 µM; in the test on NCI-H226 lung it was 2.54 µM; in the test on BT-549 breast, 3.99 µM; in the test with COLO 205 colon it was 4.36 µM.
Regarding `Cn1c(=O)sc2cc(C(=S)N3CCC(Cc4ccccc4)CC3)ccc21`, the TGI in the test on CCRF-CEM leukemia, in the test with 786-0 renal, in the test on LOX IMVI melanoma, in the test on MCF7 breast, in the test on HCT-116 colon and with SW-620 colon was over 100 µM each time. Besides, the TGI in the test with SK-OV-3 ovarian, in the test on NCI-H226 lung, with BT-549 breast and with COLO 205 colon was over 100 µM in each case.
For `O=C(O)CCCc1ccc2ccccc2c1`, the TGI in the test with CCRF-CEM leukemia, in the test on 786-0 renal, in the test with LOX IMVI melanoma, in the test with MCF7 breast, in the test with HCT-116 colon and with SW-620 colon was over 100 µM each time. Also, the TGI in the test with HOP-92 NSCLC, in the test on SK-OV-3 ovarian, with BT-549 breast and in the test with COLO 205 colon was over 100 µM each time.
For `O=c1c2cc(Cl)cc(Cl)c2oc2nc3n(c(=O)c12)CCCS3`, the total growth inhibition concentration (TGI) in the test on CCRF-CEM leukemia, in the test with 786-0 renal, with MCF7 breast, in the test on HCT-116 colon, in the test on SW-620 colon and with HOP-92 NSCLC was over 100 µM throughout. For the same compound, the concentration for total growth inhibition (TGI) in the test with SK-OV-3 ovarian, with NCI-H226 lung, in the test with BT-549 breast and in the test on COLO 205 colon was over 100 µM in each case.
